Columns and labels:
Assay in all cases: In vitro antibacterial evaluation: minimum inhibitory concentration (MIC), broth dilution method
Format in all cases: cell-based
[1] = system: Streptococcus sp.
Method in brief: (§1)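 NCCLS M7-A2 broth dilution; Muller-Hinton II […]; 5×10^5 CFU/mL; 64-0.06 μg/mL. MIC = lowest concentration with no growth.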

[2] = system: Escherichia coli
Method in brief: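 Inoculum: 5×10^5 CFU/mL. Range: 64-0.06 μg/mL. Medium: Muller-Hinton II […]; NCCLS M7-A2 broth dilution. Endpoint: lowest concentration inhibiting growth. Strains include methicillin-, penicillin- and/or vancomycin-resistant clinical isolates.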

[3] = system: Enterococcus sp.
Method in brief: as §1

[4] = system: Staphylococcus sp.; details: for MIC Staphylococcus aureus (ATCC 29213) / MIC Staphylococcus aureus (GC 1131) / MIC Staphylococcus aureus (GC 3051) / MIC Staphylococcus aureus (GC 3053) / MIC Staphylococcus aureus (GC 4541) / MIC Staphylococcus aureus (GC 4542) / MIC Staphylococcus aureus (GC 4544) / MIC Staphylococcus aureus (GC 4545): broth dilution, 18 hours at 35° C.
Method in brief: as §1

[5] = broth dilution, inoculum 5×10^5 CFU/mL, 18 hours at 35° C.

CC(C)=CCCC(C)=CCOc1ccc(C2OCC3OC(OC4C(CO)OC(Oc5ccc(CC6NC(=O)C(C(C)c7ccccc7)NC(=O)CNC(=O)C(CO)NC(=O)C(C(O)C7CNC(=N)N7C7OC(CO)C(O)C(O)C7O)NC(=O)C(C(O)C7CNC(=N)N7)NC6=O)cc5)C(O)C4O)C(O)C(O)C3O2)cc1 (stereo not drawn) [Example 183, Cyclo[glycyl-β-methylphenylalanyl-O-[4-O-[4,6-O-[4-[(3,7-dimethylocta-2,6-dien-1-yl)oxy]-benzylidene]hexopyranosyl]hexopyranosyl]tyrosyl-3-(2-iminoimidazolidin-4-yl)seryl-3-(3-hexopyranosyl-2-iminoimidazolidin-4-yl)serylseryl]]
8 µg/mL: MIC Enterococcus faecalis (ATCC 29212) [3, 5] | MIC Enterococcus faecalis (GC 2242) [3, 5] | MIC Enterococcus faecalis (GC 4552) [3, 5] | MIC Enterococcus faecium (GC 4556) [3, 5] | MIC Enterococcus faecalis (ATCC 29212) ([3]; strain ATCC 29212) | MIC Enterococcus faecalis (GC 2242) ([3]; strain GC 2242) | MIC Enterococcus faecalis (GC 4552) ([3]; strain GC 4552) | MIC Enterococcus faecium (GC 4556) ([3]; strain GC 4556) | MIC Staphylococcus aureus (GC 1131) ([4]; 5×10^5 CFU/mL) | MIC Staphylococcus aureus (GC 4541) ([4]; 5×10^5 CFU/mL) | MIC Staphylococcus aureus (GC 1131) ([4]; strain GC 1131) | MIC Staphylococcus aureus (GC 4541) ([4]; strain GC 4541) | MIC Staphylococcus haemolyticus (GC 4546) ([4]; strain GC 4546)
>64 µg/mL: MIC Escherichia coli (ATCC 25922) ([2]; strain ATCC 25922) | MIC Escherichia coli (GC 4559) ([2]; strain GC 4559)
4 µg/mL: MIC Escherichi coli (GC 4560) ([2]; strain GC 4560) | MIC Enterococcus faecalis (GC 3059) [3, 5] | MIC Enterococcus faecalis (GC 4553) [3, 5] | MIC Enterococcus faecalis (GC 4554) [3, 5] | MIC Enterococcus faecium (GC 4557) [3, 5] | MIC Enterococcus faecalis (GC 3059) ([3]; strain GC 3059) | MIC Enterococcus faecalis (GC 4553) ([3]; strain GC 4553) | MIC Enterococcus faecalis (GC 4554) ([3]; strain GC 4554) | MIC Enterococcus faecium (GC 4557) ([3]; strain GC 4557) | MIC Staphylococcus aureus (ATCC 29213) ([4]; 5×10^5 CFU/mL) | MIC Staphylococcus aureus (GC 4542) ([4]; 5×10^5 CFU/mL) | MIC Staphylococcus aureus (GC 4544) ([4]; 5×10^5 CFU/mL) | MIC Staphylococcus aureus (GC 4545) ([4]; 5×10^5 CFU/mL) | MIC Staphylococcus aureus (ATCC 29213) ([4]; strain ATCC 29213) | MIC Staphylococcus aureus (GC 4542) ([4]; strain GC 4542) | MIC Staphylococcus aureus-SMITH (GC 4543) ([4]; strain GC 4543) | MIC Staphylococcus aureus (GC 4544) ([4]; strain GC 4544) | MIC Staphylococcus aureus (GC 4545) ([4]; strain GC 4545) | MIC Coagulase Negative Staphylococcus (GC 4547) ([4]; strain GC 4547) | MIC Coagulase Negative Staphylococcus (GC 4549) ([4]; strain GC 4549) | MIC Coagulase Negative Staphylococcus (GC 4551) ([4]; strain GC 4551)
<0.06 µg/mL: MIC Streptococcus agalactiae (GC 4564) [1, 5] | MIC Streptococcus pneumoniae (ATCC 6301) [1, 5] | MIC Streptococcus pneumoniae (GC 1894) [1, 5] | MIC Streptococcus pneumoniae (GC 4565) [1, 5] | MIC Streptococcus pyogenes (GC 4563) [1, 5] | MIC Streptococcus pneumoniae (ATCC 6301) ([1]; strain ATCC 6301) | MIC Streptococcus pneumoniae (GC 1894) ([1]; strain GC 1894) | MIC Streptococcus pyogenes (GC 4563) ([1]; strain GC 4563) | MIC Streptococcus agalactiae (GC 4564) ([1]; strain GC 4564) | MIC Streptococcus pneumoniae (GC 4565) ([1]; strain GC 4565)
2 µg/mL: MIC Enterococcus avium (GC 4558) [3, 5] | MIC Enterococcus faecalis (GC 2691) [3, 5] | MIC Enterococcus faecalis (GC 6189) [3, 5] | MIC Enterococcus faecium (GC 2243) [3, 5] | MIC Enterococcus faecium (GC 2243) ([3]; strain GC 2243) | MIC Enterococcus faecalis (GC 2691) ([3]; strain GC 2691) | MIC Enterococcus avium (GC 4558) ([3]; strain GC 4558) | MIC Enterococcus faecalis (GC 6189) ([3]; strain GC 6189) | MIC Staphylococcus aureus (GC 3051) ([4]; 5×10^5 CFU/mL) | MIC Staphylococcus aureus (GC 3053) ([4]; 5×10^5 CFU/mL) | MIC Staphylococcus aureus (GC 3051) ([4]; strain GC 3051) | MIC Staphylococcus aureus (GC 3053) ([4]; strain GC 3053) | MIC Coagulase Negative Staphylococcus (GC 4548) ([4]; strain GC 4548) | MIC Coagulase Negative Staphylococcus (GC 6257) ([4]; strain GC 6257)
